{"source": "patent US10829466B2", "about": "“Stilbene derivative and preparation method thereof” (BEIJING INSTITUTE OF TECHNOLOGY, priority 2015, dated 2020)", "key": {"[1]": {"tested_on": "HEK293", "test": "In vitro cytotoxicity experiment (MTT, cell survival)", "type": "cell-based", "conditions": "for neuronal cytotoxicity / neurotoxicity (in words): HEK293, in vitro test, FIG. 3; for cell survival rates: HEK293, 24 h, MTT, at all three doses, low, medium and high (100 μM; 500 μM; 1000 μM)", "experimental": "Example 35: In Vitro Cytotoxicity Experiment the Experimental Cell Line is HEK293\nCells are cultured in a 96-well plate at a cell concentration of 5000/well. After 24 hours of cell culture, the drug treatment is performed and the experiment is carried out on two groups: the control group is added with DMSO with the same concentration as that for the experimental group; in the experimental group, each compound is tested at three doses of low, medium and high doses (100 μM; 500 μM; 1000 μM), and five parallels are tested at each dose; in the blank group, a complete medium is added with a compound to be tested with the same concentration as that for the experimental group. Constant temperature incubation is carried out for 24 h in a CO2 incubator, MTT with a final concentration of 0.5 mg/mL is then added; 4 hours later, 200 μL of DMSO solution is added, and the absorbance is measured at 490 nm. The cell survival is calculated according to the absorbance; Survival %=(Average concentration−Blank concentration)/(Average control concentration−Blank concentration)*100%.\nReference is made to FIG. 3 which illustrates an in vitro cytotoxicity test chart of a novel stilbene derivative according to an example of embodiments of the present invention."}, "[2]": {"tested_on": "neurogenesis in rat hippocampus", "test": "Detection of neurogenesis in rat hippocampus by BrdU labeling (DAB immunohistochemistry)", "type": "in vivo", "conditions": "for BrdU labeling result: SD male rats, intraperitoneal injection 28 days, 4 mg/Kg, compared with the control group; for activity of proliferation promotion (BrdU positive) at low dose: low dose 0.5 mg/Kg, compared with blank sample (V), FIG. 10; for neurogenesis activity (in words): under the test conditions of the embodiments, same dose", "description": "Example 36: Detection of Neurogenesis in Rat Hippocampus by BrdU (5-Bromo-2-deoxy Uridine, 5-bromodeoxyuridine) Labeling\nExperimental animals: 10-week-old SD male rats having a body weight of about 300 g are purchased. The rats are used in experiments one week after being adapted to the environment in an animal room. Experimental groups: control group, drug group. 2-3 rats per group. Experimental reagent: injection oil is used to dissolve a compound to be tested. Rates in the control group are injected with the same dose of dissolving oil.\nTest method: intraperitoneal injection is carried out 28 days at the injection dose of 0.5 ml-1 ml each time. Dose: 4 mg/Kg.\n1) marker injection: BrdU (dissolved in sterile saline solution at a concentration of 10 mg/mL) solution is injected intraperitoneally into rats. (For rats with different body weights, the injection dose of BrdU is 50 mg·Kg^−1, injection is carried out twice every 2 hour; the intraperitoneal injection 24 hours before anesthesia ends.\n2) Anesthesia: Anesthesia is performed by intraperitoneal injection of sodium pentobarbital solution into rats. (For rats with different body weights, the injection dose of sodium pentobarbital is usually 70 mg·Kg^−1.)\n3) Cardiac perfusion: cardiac perfusion with normal saline is performed according to a general method.\n4) Taking of brain tissues: The heads of the rats are separated from the bodies with surgical forceps and scissors, and then the muscles and membrane tissues at the top of the skulls are removed and brains are then gently peeled from the skulls. The separated brains are soaked in 4% paraformaldehyde for 24-48 hours.\n5) Dehydration of brain tissues: the fixed tissues are soaked with a 20% sucrose PBS solution for more than 72 hours, and then the brain tissues are soaked with a 30% sucrose PBS solution for more than 72 hours.\n6) Frozen section: the brain tissues are cut into […] thick sections by a general coronal section procedure.\n7) DAB immunohistochemistry step: DNA denaturation is carried out and the sections are transferred to a 24-well plate (pH 7.4) perfused with 0.1 M PBS. The brain sections are incubated with 1% H2O2 for 30 minutes to remove […]; the sections are then treated with a 2M HCl solution for 30 minutes at room temperature to denature them. After completion of the denaturation, the brain sections are immersed in a 0.1 M sodium borate (pH 8.5) solution for 5 minutes and rinsed twice; the brain sections are incubated in 0.5% PBST for 1 hour at room temperature, and then are blocked for 1 hour with a serum blocking solution on a shaker at room temperature, and the serum blocking solution is from the same source as a secondary antibody; the samples are treated on the shaker with a BrdU primary antibody overnight at 4° C., and the BrdU primary antibody is diluted with the blocking solution; the samples are incubated with the biotinylated secondary antibody IgG for 2 hours at room temperature; a C (ABC kit) solution is incubated at room temperature for 2 hours; finally, after 3 to 5 minutes of color development by the DAB kit, the samples are mounted by using a PVP mounting medium and then dried, and finally the experimental results are detected under a microscope.\nThe dose-effect relationships of different compounds is further tested according to the method of Example 36, and the compounds include WS-54 (E-4-isobutyrylamino-3′,4′-methylenedioxy-stilbene), WS-69 (E-4-Methylsulfonamino-3′,4′-methylenedioxy-stilbene), WS-70 (E-4-Benzamino-3′,4′-methylenedioxy-stilbene), and WS-74 (E-4-Cyclopropylformamino-3′,4′-methylenedioxy-stilbene)."}}, "note": "Entries after “also recorded” stand apart in the source; their conditions may differ.", "data": [{"compound": "COc1cc(/C=C/c2ccc(NC(C)=O)cc2)cc(OC)c1", "note": "[WS-61, E-4-acetylamino-3′,5′-dimethoxy-stilbene, reference compound]", "values": [{"measurement": "neuronal cytotoxicity / neurotoxicity (in words)", "setting": "[1]", "value": "reduce neurotoxicity"}]}, {"compound": "CC(=O)Nc1ccc(/C=C/C(=O)c2ccc3c(c2)OCO3)cc1", "note": "[WS-37, 4-acetylamino-3′,4′-methylenedioxychalcone, reference compound]", "values": [{"measurement": "cell survival rates", "setting": "[1]", "value": "less than 10%"}, {"measurement": "neuronal cytotoxicity / neurotoxicity (in words)", "setting": "[1]", "value": "higher neuronal cytotoxicity"}]}, {"compound": "CC(=O)Nc1cccc(/C=C/c2ccc3c(c2)OCO3)c1", "note": "[WS-49, E-3-acetylamino-3′,4′-methylenedioxy-stilbene, reference compound]", "values": [{"measurement": "cell survival rates", "setting": "[1]", "value": "≤ 20", "unit": "%"}, {"measurement": "neuronal cytotoxicity / neurotoxicity (in words)", "setting": "[1]", "value": "higher neuronal cytotoxicity"}]}, {"compound": "CC(C)C(=O)Nc1ccc(/C=C/c2ccc3c(c2)OCO3)cc1", "note": "[WS-54, E-4-isobutyrylamino-3′,4′-methylenedioxy-stilbene]", "values": [{"measurement": "neuronal cytotoxicity / neurotoxicity (in words)", "setting": "[1]", "value": "low neurotoxicity"}, {"measurement": "BrdU labeling result", "setting": "[2]", "value": "positive"}, {"measurement": "activity of proliferation promotion (BrdU positive) at low dose", "setting": "[2]", "value": "significant activities of proliferation promotion"}]}, {"compound": "Nc1ccc(/C=C/c2ccc3c(c2)OCO3)cc1", "note": "[WS-4, E-4-amino-3′,4′-methylenedioxy-stilbene, reference compound]", "values": [{"measurement": "cell survival rates", "setting": "[1]", "value": "less than 50%"}, {"measurement": "neuronal cytotoxicity / neurotoxicity (in words)", "setting": "[1]", "value": "high neuronal cytotoxicity"}]}, {"compound": "CS(=O)(=O)Nc1ccc(/C=C/c2ccc3c(c2)OCO3)cc1", "note": "[WS-69, E-4-methanesulfonylamino-3′,4′-methylenedioxy-stilbene]", "values": [{"measurement": "neuronal cytotoxicity / neurotoxicity (in words)", "setting": "[1]", "value": "low neurotoxicity"}, {"measurement": "BrdU labeling result", "setting": "[2]", "value": "positive"}, {"measurement": "activity of proliferation promotion (BrdU positive) at low dose", "setting": "[2]", "value": "significant activities of proliferation promotion"}]}, {"compound": "COc1ccc(/C=C/c2ccc(NC(C)=O)cc2)cc1OC", "note": "[WS-43, E-4′-acetylamino-3,4-dimethoxy-stilbene, reference compound]", "values": [{"measurement": "neurogenesis activity (in words)", "setting": "[2]", "value": "no significant neurogenesis activity"}]}, {"compound": "CC(=O)N(C)c1ccc(/C=C/c2ccc3c(c2)OCO3)cc1", "note": "[WS-80, E-4′-(N-acetyl-N-methylamino)-3,4-methylenedioxy-stilbene, reference compound]", "values": [{"measurement": "BrdU labeling result", "setting": "[2]", "value": "negative"}, {"measurement": "neurogenesis activity (in words)", "setting": "[2]", "value": "no significant neurogenesis activity"}]}, {"compound": "COc1cc(/C=C/c2ccc(OC(C)=O)cc2)cc(OC)c1", "note": "[WS-56, E-4-acetoxy-3′,5′-dimethoxy-stilbene, reference compound]", "values": [{"measurement": "activity of proliferation promotion (BrdU positive) at low dose", "setting": "[2]", "value": "no significant activity"}]}, {"compound": "O=C(Cc1ccccc1)Nc1ccc(/C=C/c2ccc3c(c2)OCO3)cc1", "note": "[LSS-16, E-4-phenylacetylamino-3′,4′-methylenedioxy-stilbene]", "values": [{"measurement": "BrdU labeling result", "setting": "[2]", "value": "positive"}]}, {"compound": "O=C(Nc1ccc(/C=C/c2ccc3c(c2)OCO3)cc1)c1ccccc1", "note": "[WS-70, E-4-benzoylamino-3′,4′-methylenedioxy-stilbene]", "values": [{"measurement": "neuronal cytotoxicity / neurotoxicity (in words)", "setting": "[1]", "value": "low neurotoxicity; also recorded: greatly reduced"}, {"measurement": "BrdU labeling result", "setting": "[2]", "value": "positive"}, {"measurement": "activity of proliferation promotion (BrdU positive) at low dose", "setting": "[2]", "value": "significant activities of proliferation promotion"}]}, {"compound": "CN(C)S(=O)(=O)Nc1ccc(/C=C/c2ccc3c(c2)OCO3)cc1", "note": "[LSS-17, E-4-(N,N-dimethylamino-sulfonamino)-3′,4′-methylenedioxy-stilbene]", "values": [{"measurement": "BrdU labeling result", "setting": "[2]", "value": "positive"}]}, {"compound": "O=C(Nc1ccc(/C=C/c2ccc3c(c2)OCO3)cc1)c1cccs1", "note": "[WS-73, E-4-(2-thienyl)formamino-3′,4′-methylenedioxy-stilbene]", "values": [{"measurement": "neuronal cytotoxicity / neurotoxicity (in words)", "setting": "[1]", "value": "low neurotoxicity"}, {"measurement": "BrdU labeling result", "setting": "[2]", "value": "positive"}]}, {"compound": "CC(=O)Oc1ccc(/C=C/c2ccc3c(c2)OCO3)cc1", "note": "[WS-10, E-4′-acetoxy-3,4-methylenedioxy-stilbene, reference compound]", "values": [{"measurement": "neurogenesis activity (in words)", "setting": "[2]", "value": "no neurogenesis activity"}]}, {"compound": "O=C(Nc1ccc(/C=C/c2ccc3c(c2)OCO3)cc1)C1CC1", "note": "[WS-74, E-4-cyclopropylcarboxamino-3′,4′-methylenedioxy-stilbene]", "values": [{"measurement": "neuronal cytotoxicity / neurotoxicity (in words)", "setting": "[1]", "value": "low neurotoxicity; also recorded: greatly reduced"}, {"measurement": "BrdU labeling result", "setting": "[2]", "value": "positive"}, {"measurement": "activity of proliferation promotion (BrdU positive) at low dose", "setting": "[2]", "value": "significant activities of proliferation promotion"}]}, {"compound": "E-4′-acetamino-3,4-methylenedioxy-diphenylethane [WS-35, reference compound]", "values": [{"measurement": "neurogenesis activity (in words)", "setting": "[2]", "value": "no neurogenesis activity"}]}, {"compound": "E-4′-tertamino-3,4-methylenedioxy-stilbene [WS-60, reference compound]", "values": [{"measurement": "neurogenesis activity (in words)", "setting": "[2]", "value": "weak neurogenesis activity"}]}, {"compound": "O=C(Nc1ccc(/C=C/c2ccc3c(c2)OCO3)cc1)C1CCC1", "note": "[WS-83, E-4-cyclobutylformamino-3′,4′-methylenedioxy-stilbene]", "values": [{"measurement": "BrdU labeling result", "setting": "[2]", "value": "positive"}]}, {"compound": "Oc1ccc(/C=C/c2ccc3c(c2)OCO3)cc1", "note": "[WS-11, E-4′-hydroxy-3,4-methylenedioxy-stilbene, reference compound]", "values": [{"measurement": "neurogenesis activity (in words)", "setting": "[2]", "value": "no neurogenesis activity"}]}, {"compound": "O=C(Nc1ccc(/C=C/c2ccc3c(c2)OCO3)cc1)c1ccccn1", "note": "[LSS-20, E-4-(2-pyridinecarboxamino)-3′,4′-methylenedioxy-stilbene]", "values": [{"measurement": "BrdU labeling result", "setting": "[2]", "value": "positive"}]}, {"compound": "CC(=O)Nc1ccc(/C=C/c2ccc3c(c2)OCO3)cc1F", "note": "[WS-71, E-3,4-methylenedioxy-3′-fluoro-4′-acetylamino-stilbene]", "values": [{"measurement": "neuronal cytotoxicity / neurotoxicity (in words)", "setting": "[1]", "value": "low neurotoxicity"}, {"measurement": "BrdU labeling result", "setting": "[2]", "value": "positive"}]}, {"compound": "O=S(=O)(Nc1ccc(/C=C/c2ccc3c(c2)OCO3)cc1)C1CC1", "note": "[LSS-13, E-4-cyclopropylsulfonylamino-3′,4′-methylenedioxy-stilbene]", "values": [{"measurement": "BrdU labeling result", "setting": "[2]", "value": "positive"}]}, {"compound": "O=S(=O)(Nc1ccc(/C=C/c2ccc3c(c2)OCO3)cc1)c1ccccc1", "note": "[LSS-12, E-4-benzenesulfonylamino-3′,4′-methylenedioxy-stilbene]", "values": [{"measurement": "BrdU labeling result", "setting": "[2]", "value": "positive"}]}, {"compound": "CC(=O)Nc1ccc(C#Cc2ccc3c(c2)OCO3)cc1", "note": "[WS-77, E-4′-acetamino-3,4-methylenedioxy-diphenylacetylene, reference compound]", "values": [{"measurement": "BrdU labeling result", "setting": "[2]", "value": "positive"}, {"measurement": "neurogenesis activity (in words)", "setting": "[2]", "value": "weak neurogenesis activity"}]}]}
